The values that follow come from US12371428B2 (Exelixis, Inc., priority 2019, dated 2025).

In general, IC50 refers to the concentration that inhibits the measured activity by half.

In assay [1] the target is Human KDR (residues K790-V1356) (Homo sapiens (Human), UniProt P35968). In words: Human KDR kinase assay, 33P-phosphoryl transfer radiometric (Example B-1, KinaseProfiler). In kind it is biochemical. Conditions: protocol of Example B-1 (compounds 21-27, 41-47, 99, 104). The procedure: Kinase activity and compound inhibition were investigated using the ^33P-Phosphoryl transfer radiometric kinase assay, performed using the KinaseProfiler™ service of Eurofins Pharma Discovery Services UK Limited. Dose-response experiments were performed using nine compound concentrations in a 96-well microtiter plate. For each assay, all compounds were prepared to a 50× final assay concentration (50 μM) in 100% DMSO, then diluted in a half-log series, with the final top concentration at 1 μM. This working stock of the compound was added to the assay well as the first component in the reaction, followed by the remaining components as detailed in the following assay protocols below. The positive control wells (100% kinase activity) contain all components of the reaction including 2% DMSO (control for solvent effects), except the compound of interest. Blank wells contain all components of the reaction, with the reference inhibitor, staurosporine. This reference compound was used to abolish kinase activity and generated the 0% kinase activity base-line. IC50 values were calculated by nonlinear regression analysis using the sigmoidal dose-response (variable slope) curve fit on XLFit version 5.3 (ID Business Solutions).
Example B-1: Human KDR (residues K790-V1356, 55 nM) was incubated with 8 mM MOPS pH 7.0, 0.2 mM EDTA, 0.33 mg/mL myelin basic protein, 10 mM magnesium acetate, and 10 μM [γ-^33P-ATP]. The reaction was initiated by the addition of the Mg/ATP mix. After incubation for 40 minutes at room temperature, the reaction was stopped by the addition of phosphoric acid to a concentration of 0.5%. A reaction aliquot of 10 μL was then spotted onto a P30 filtermat and washed four times for 4 minutes in 0.425% phosphoric acid and once in methanol prior to drying and scintillation counting. Incorporated ^33P was measured using the Wallac Microbeta scintillation counter (Perkin Elmer).

The target of assay [2] is AXL (phospho-AXL, Gas6-stimulated A-172 glioblastoma cells) (Homo sapiens (Human), UniProt P30530). Description: AXL autophosphorylation ELISA in A-172 cells (Example E). The note with it: cellular activity; AXL autophosphorylation ELISA in A-172 cells; read-out: Axl IC50. The assay is classed as cell-based. The procedure, abridged:
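Phospho-AXL was measured by ELISA in lysates of Gas6-stimulated A-172 cells, starved 24 h in serum-free medium and exposed 1 h to an 8-point compound dilution at 0.3% DMSO.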
Background: In an ELISA, binding on a coated surface is turned into a signal by an enzyme label.

Assay [3] deals with Human Axl (residues H473-A894 with Q764R) (Homo sapiens (Human), UniProt P30530, Q764R). Description: Human AXL kinase assay, 33P-phosphoryl transfer radiometric (Example A-1, KinaseProfiler). In kind it is biochemical.
Method: The reaction was initiated by the addition of the Mg/ATP mix. […] Incorporated ^33P was measured using the Wallac Microbeta scintillation counter (Perkin Elmer).
The target of assay [4] is Human AXL (residues 464-885) (Homo sapiens (Human), UniProt P30530). In words: Human AXL kinase assay, HTRF KinEase (Example A-2). In kind it is biochemical. The protocol:
Kinase activity and compound inhibition were also investigated using the HTRF® KinEase assay (Cisbio Cat #62TKOPEB) per manufacturer's instructions. In short, compounds were delivered in 300 nL volumes at 10 different concentrations in DMSO (3% final) to empty 384-well assay plates (Corning cat #3824). A mixture of enzyme, […] biotynlated peptide substrate, and buffer in 10 μL volume was added. The assay was started upon the addition of ATP (at Km). The 10 μL reaction was incubated at room temperature. The reaction was stopped upon the addition of detection buffer containing streptavidin-XL665 ([…]) and TK antibody-Eu3+(5 L).
Kinase activity normalized to DMSO (100% activity) and reference compound at […] and (0% activity) was calculated using the fluorescence ratio […]. IC50 values were calculated by nonlinear regression analysis using a 4-parameter logistic curve fit in ActivityBase XE (IDBS).
The mixture was added to the pre-plated compounds. […] The reaction was incubated at room temperature for 50 min and stopped upon the addition of SA-XL665 and TK-antibody both diluted in EDTA-containing kinase detection buffer (Cisbio). The kinase activity was calculated as stated above and the IC50 values were reported.
Background: In TR-FRET formats the signal depends on donor and acceptor labels being close together.

Where [5] appears, read: protocol of Example A-2 (other compounds).

Sequence of Human KDR (residues K790-V1356) (P35968 790-1356): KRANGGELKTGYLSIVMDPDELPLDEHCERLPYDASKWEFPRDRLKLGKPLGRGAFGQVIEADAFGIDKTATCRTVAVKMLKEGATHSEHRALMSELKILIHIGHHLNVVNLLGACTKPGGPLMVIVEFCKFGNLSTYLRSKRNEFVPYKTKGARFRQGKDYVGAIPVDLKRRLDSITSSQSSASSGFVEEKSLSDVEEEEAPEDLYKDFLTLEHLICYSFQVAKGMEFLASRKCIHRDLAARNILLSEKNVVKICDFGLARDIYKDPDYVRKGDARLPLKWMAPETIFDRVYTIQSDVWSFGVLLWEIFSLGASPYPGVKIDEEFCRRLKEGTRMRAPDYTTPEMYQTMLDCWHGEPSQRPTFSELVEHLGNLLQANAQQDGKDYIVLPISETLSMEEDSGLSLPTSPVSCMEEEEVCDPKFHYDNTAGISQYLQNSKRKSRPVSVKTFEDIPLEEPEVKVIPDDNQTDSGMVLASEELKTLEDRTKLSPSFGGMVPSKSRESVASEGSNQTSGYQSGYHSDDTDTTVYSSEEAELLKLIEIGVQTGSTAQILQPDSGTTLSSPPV
Sequence of AXL (phospho-AXL, Gas6-stimulated A-172 glioblastoma cells) (P30530 26-894): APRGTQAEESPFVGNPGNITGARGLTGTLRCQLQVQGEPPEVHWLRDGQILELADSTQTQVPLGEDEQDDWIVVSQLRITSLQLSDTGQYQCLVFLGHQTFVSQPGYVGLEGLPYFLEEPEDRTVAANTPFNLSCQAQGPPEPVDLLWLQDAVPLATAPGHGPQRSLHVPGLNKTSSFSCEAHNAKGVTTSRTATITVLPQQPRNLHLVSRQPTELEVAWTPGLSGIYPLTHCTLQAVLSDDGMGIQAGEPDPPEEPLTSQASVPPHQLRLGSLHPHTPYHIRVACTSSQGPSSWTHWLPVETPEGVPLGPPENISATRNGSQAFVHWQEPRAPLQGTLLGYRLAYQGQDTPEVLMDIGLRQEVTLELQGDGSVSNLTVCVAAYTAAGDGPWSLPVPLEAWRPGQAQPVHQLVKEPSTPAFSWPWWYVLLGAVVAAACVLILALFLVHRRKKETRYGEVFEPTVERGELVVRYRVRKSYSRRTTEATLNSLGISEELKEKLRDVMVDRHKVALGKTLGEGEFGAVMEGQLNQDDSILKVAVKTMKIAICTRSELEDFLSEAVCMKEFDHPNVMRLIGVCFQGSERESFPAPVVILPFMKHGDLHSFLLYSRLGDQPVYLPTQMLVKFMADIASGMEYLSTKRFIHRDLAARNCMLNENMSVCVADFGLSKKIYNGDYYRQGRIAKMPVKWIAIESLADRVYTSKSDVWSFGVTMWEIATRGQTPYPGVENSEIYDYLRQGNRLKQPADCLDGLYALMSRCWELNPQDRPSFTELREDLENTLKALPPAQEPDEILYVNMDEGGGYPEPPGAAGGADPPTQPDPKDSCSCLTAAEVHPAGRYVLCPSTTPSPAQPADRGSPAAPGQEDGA
Sequence of Human AXL (residues 464-885) (P30530 473-894): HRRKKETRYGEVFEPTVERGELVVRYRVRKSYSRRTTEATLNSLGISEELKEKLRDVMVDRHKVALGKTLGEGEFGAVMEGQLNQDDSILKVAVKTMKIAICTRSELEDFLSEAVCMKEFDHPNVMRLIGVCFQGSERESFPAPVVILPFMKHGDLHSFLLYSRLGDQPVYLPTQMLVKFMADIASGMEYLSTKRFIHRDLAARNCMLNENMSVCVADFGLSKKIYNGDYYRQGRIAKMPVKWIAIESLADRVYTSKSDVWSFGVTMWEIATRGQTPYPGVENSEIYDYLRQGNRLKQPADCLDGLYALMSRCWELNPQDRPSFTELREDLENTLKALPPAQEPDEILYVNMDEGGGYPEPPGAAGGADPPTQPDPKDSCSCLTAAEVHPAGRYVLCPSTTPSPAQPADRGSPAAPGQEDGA
Sequence of Human Axl (residues H473-A894 with Q764R) (P30530 473-894 Q764R): as the sequence (P30530 473-894) above, with Q292R counted along it

In the case of `COc1cc2nccc(Oc3ccc(NC(=O)c4cn(C)cc(-c5ccc(F)cc5)c4=O)cc3F)c2nc1OC` [Compound 45, N-[4-[(6,7-Dimethoxy-1,5-naphthyridin-4-yl)oxy]-3-fluorophenyl]-5-(4-fluorophenyl)-1-methyl-4-oxopyridine-3-carboxamide], the IC50 in assay [1] was less than 100 nM.

`COc1cc2nccc(Oc3ccc(NC(=O)c4cn(C5CCCC5)cc(-c5ccc(F)cc5)c4=O)cc3F)c2nc1OC` [Compound 46, 1-Cyclopentyl-N-[4-[(6,7-dimethoxy-1,5-naphthyridin-4-yl)oxy]-3-fluorophenyl]-5-(4-fluorophenyl)-4-oxopyridine-3-carboxamide] returned an IC50 in assay [1] of less than 100 nM.

In assay [1], `COc1cc2nccc(Oc3ccc(NC(=O)c4cn(C5COC5)cc(-c5ccc(F)cc5)c4=O)cc3F)c2nc1OC` [Compound 47, N-[4-[(6,7-Dimethoxy-1,5-naphthyridin-4-yl)oxy]-3-fluorophenyl]-5-(4-fluorophenyl)-1-(oxetan-3-yl)-4-oxopyridine-3-carboxamide] came in with an IC50 of less than 100 nM.

In assay [1], `CNc1ncc(C(=O)Nc2ccc(Oc3ccnc4cc(OC)c(OC)nc34)c(F)c2)c(=O)n1-c1ccc(F)cc1` [Compound 99, N-[4-[(6,7-Dimethoxy-1,5-naphthyridin-4-yl)oxy]-3-fluorophenyl]-1-(4-fluorophenyl)-2-(methylamino)-6-oxopyrimidine-5-carboxamide] gave a 50% inhibitory concentration (IC50) of less than 100 nM.

Take `COc1cc2nccc(Oc3ccc(NC(=O)c4c[nH]c(=S)n(-c5ccc(F)cc5)c4=O)cc3F)c2nc1OC` [Compound 104, N-[4-[(6,7-Dimethoxy-1,5-naphthyridin-4-yl)oxy]-3-fluorophenyl]-3-(4-fluorophenyl)-4-oxo-2-sulfanylidene-1H-pyrimidine-5-carboxamide]: the results for the IC50 in assay [2], in assay [3] and in assay [1] were less than 100 nM, greater than 300 nM and greater than 300 nM, respectively.

Consider `COc1cc2nccc(Oc3ccc(NC(=O)c4c(C)nc(C)c(-c5ccc(F)cc5)c4O)cc3F)c2nc1OC` [Compound 154, N-[4-[(6,7-Dimethoxy-1,5-naphthyridin-4-yl)oxy]-3-fluorophenyl]-5-(4-fluorophenyl)-4-hydroxy-2,6-dimethylpyridine-3-carboxamide], for which the IC50 in assay [2] and in assay [4] (setting [5]) was less than 100 nM each time.

As to `COc1cnc2c(Oc3ccc(NC(=O)c4cn(C)c(C)c(-c5ccc(F)cc5C)c4=O)cc3)ccnc2c1` [Compound 187, 5-(4-Fluoro-2-methylphenyl)-N-[4-[(7-methoxy-1,5-naphthyridin-4-yl)oxy]phenyl]-1,6-dimethyl-4-oxopyridine-3-carboxamide], the IC50 in assay [2] and in assay [4] (setting [5]) was less than 100 nM throughout.

Consider `COc1cc2nccc(Oc3ccc(NC(=O)c4ccc(C)n(-c5ccc(F)cc5)c4=O)cc3F)c2nc1OC` [Compound 254, N-[4-[(6,7-Dimethoxy-1,5-naphthyridin-4-yl)oxy]-3-fluorophenyl]-1-(4-fluorophenyl)-6-methyl-2-oxopyridine-3-carboxamide], for which the IC50 in assay [2] and in assay [4] (setting [5]) was less than 100 nM throughout.

`COc1cc2nccc(Oc3ccc(NC(=O)c4cn(CC(F)(F)F)c(C)c(-c5ccc(F)cc5)c4=O)cc3)c2cc1OC` [Compound 260, N-[4-(6,7-Dimethoxyquinolin-4-yl)oxyphenyl]-5-(4-fluorophenyl)-6-methyl-4-oxo-1-(2,2,2-trifluoroethyl)pyridine-3-carboxamide]: the IC50 in assay [2] and in assay [4] (setting [5]) was less than 100 nM in each case.

As for `COCCOc1ccc2nccc(Oc3ccc(NC(=O)c4cnc(C)c(-c5ccc(F)cc5)c4O)cc3F)c2n1` [Compound 348, N-[3-fluoro-4-[[6-(2-methoxyethoxy)-1,5-naphthyridin-4-yl]oxy]phenyl]-5-(4-fluorophenyl)-4-hydroxy-6-methylpyridine-3-carboxamide], the IC50 in assay [2] and in assay [4] (setting [5]) was less than 100 nM throughout.

For the molecule `COCCOc1ccc2nccc(Oc3ccc(NC(=O)c4c(C)nc(C)c(-c5ccc(F)cc5)c4O)cc3F)c2n1` [Compound 349, N-[3-fluoro-4-[[6-(2-methoxyethoxy)-1,5-naphthyridin-4-yl]oxy]phenyl]-5-(4-fluorophenyl)-4-hydroxy-2,6-dimethylpyridine-3-carboxamide], the IC50 in assay [2] and in assay [4] (setting [5]) was less than 100 nM in each case.

Turning to `COc1cc2ncnc(Oc3ccc(NC(=O)c4c5n(cc(-c6ccc(F)cc6)c4=O)CCC5)cc3F)c2cc1OC` [Compound 406, N-[4-(6,7-dimethoxyquinazolin-4-yl)oxy-3-fluorophenyl]-6-(4-fluorophenyl)-7-oxo-2,3-dihydro-1H-indolizine-8-carboxamide], the IC50 in assay [2] and in assay [4] (setting [5]) was less than 100 nM in each case.

Regarding `C=C(C)c1cnc2c(Oc3ccc(NC(=O)c4c(C)cc(C)n(-c5ccc(F)cc5)c4=O)cc3F)ccnc2c1` [Compound 457, 1-(4-fluorophenyl)-N-[3-fluoro-4-[(7-prop-1-en-2-yl-1,5-naphthyridin-4-yl)oxy]phenyl]-4,6-dimethyl-2-oxopyridine-3-carboxamide], the IC50 in assay [2] and in assay [4] (protocol of Example A-2) was less than 100 nM throughout.

Take `CNc1nccc2c(Oc3ccc(NC(=O)c4cnc(C)n(-c5ccc(F)cc5)c4=O)cc3)ccnc12` [Compound 543, 1-(4-fluorophenyl)-2-methyl-N-[4-[[8-(methylamino)-1,7-naphthyridin-4-yl)oxy]phenyl]-6-oxopyrimidine-5-carboxamide]: the IC50 in assay [2] and in assay [4] (protocol of Example A-2) was less than 100 nM in each case.
